Results: the Kinase Knowledgebase extract (Sharma et al. 2016)

Experiments:
EGFR (human) [1] = target: EGFR (human) (UniProt P00533); details: caki-1
EGFR (human) [2] = target: EGFR (human) (UniProt P00533); details: delta
EGFR (human) [3] = target: EGFR (human) (UniProt P00533); details: sf-295
EGFR (human) [4] = target: EGFR (human) (UniProt P00533); details: h23
EGFR (human) [5] = target: EGFR (human) (UniProt P00533); details: sk-mel-28
EGFR (human) [6] = target: EGFR (human) (UniProt P00533); details: uacc-257
EGFR (human) [7] = target: EGFR (human) (UniProt P00533); details: molt-4
EGFR (human) [8] = target: EGFR (human) (UniProt P00533); details: colo-205
EGFR (human) [9] = target: EGFR (human) (UniProt P00533); details: uo-31
EGFR (human) [10] = target: EGFR (human) (UniProt P00533); details: h460
EGFR (human) [11] = target: EGFR (human) (UniProt P00533); details: u251
EGFR (human) [12] = target: EGFR (human) (UniProt P00533); details: sf-539
EGFR (human) [13] = target: EGFR (human) (UniProt P00533); details: igr-ovi
EGFR (human) [14] = target: EGFR (human) (UniProt P00533); details: hop-92
EGFR (human) [15] = target: EGFR (human) (UniProt P00533); details: a549
EGFR (human) [16] = target: EGFR (human) (UniProt P00533); details: hl60tb

EGFR (human), sequence (P00533 whole entry, looked up): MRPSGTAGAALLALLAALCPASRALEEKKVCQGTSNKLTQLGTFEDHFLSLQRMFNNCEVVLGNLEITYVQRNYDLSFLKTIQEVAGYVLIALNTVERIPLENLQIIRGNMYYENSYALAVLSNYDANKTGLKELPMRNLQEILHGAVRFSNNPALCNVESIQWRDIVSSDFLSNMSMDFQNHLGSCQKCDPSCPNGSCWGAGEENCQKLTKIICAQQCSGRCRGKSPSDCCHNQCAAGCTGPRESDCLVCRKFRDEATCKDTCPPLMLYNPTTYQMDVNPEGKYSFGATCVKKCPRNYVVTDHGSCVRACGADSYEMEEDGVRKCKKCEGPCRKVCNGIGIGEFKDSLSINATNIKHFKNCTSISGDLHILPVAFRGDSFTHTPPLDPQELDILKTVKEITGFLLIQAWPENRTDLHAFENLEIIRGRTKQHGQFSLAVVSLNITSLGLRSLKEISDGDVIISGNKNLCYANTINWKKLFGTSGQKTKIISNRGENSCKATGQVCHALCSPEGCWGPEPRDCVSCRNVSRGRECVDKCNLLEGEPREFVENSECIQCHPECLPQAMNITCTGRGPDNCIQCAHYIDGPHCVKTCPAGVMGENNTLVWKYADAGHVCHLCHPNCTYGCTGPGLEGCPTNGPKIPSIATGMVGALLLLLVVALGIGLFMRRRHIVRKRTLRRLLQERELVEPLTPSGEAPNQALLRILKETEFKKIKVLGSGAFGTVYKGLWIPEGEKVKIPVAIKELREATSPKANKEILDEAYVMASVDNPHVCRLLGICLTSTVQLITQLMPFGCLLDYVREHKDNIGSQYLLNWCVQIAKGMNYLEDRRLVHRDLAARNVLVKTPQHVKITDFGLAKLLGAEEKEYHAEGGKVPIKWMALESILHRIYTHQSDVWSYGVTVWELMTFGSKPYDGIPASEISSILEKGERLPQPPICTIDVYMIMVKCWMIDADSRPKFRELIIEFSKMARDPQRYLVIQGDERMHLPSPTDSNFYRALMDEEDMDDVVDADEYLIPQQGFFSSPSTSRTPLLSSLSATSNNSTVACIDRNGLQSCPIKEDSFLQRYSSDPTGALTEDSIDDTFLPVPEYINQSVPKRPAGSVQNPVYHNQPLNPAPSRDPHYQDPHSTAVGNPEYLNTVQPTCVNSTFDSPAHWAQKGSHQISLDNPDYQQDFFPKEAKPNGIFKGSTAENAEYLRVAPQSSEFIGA

Compound | GI50 (EGFR (human) [1]) [µM] | GI50 (EGFR (human) [2]) [µM] | GI50 (EGFR (human) [3]) [µM] | GI50 (EGFR (human) [4]) [µM] | GI50 (EGFR (human) [5]) [µM] | GI50 (EGFR (human) [6]) [µM] | GI50 (EGFR (human) [7]) [µM] | GI50 (EGFR (human) [8]) [µM] | GI50 (EGFR (human) [9]) [µM] | GI50 (EGFR (human) [10]) [µM] | GI50 (EGFR (human) [11]) [µM] | GI50 (EGFR (human) [12]) [µM] | GI50 (EGFR (human) [13]) [µM] | GI50 (EGFR (human) [14]) [µM] | GI50 (EGFR (human) [15]) [µM] | GI50 (EGFR (human) [16]) [µM]
N#CC(C#N)=C(N)/C(C#N)=C/c1ccc([N+](=O)[O-])s1 | 18.2 | 4.07 | 17.4 | 16.6 | 17 | 10.5 | 5.89 | 15.1 | 14.8 | 23.4 | 18.6 | 23.4 | 7.24 |  |  | 
N#CC(C#N)=Cc1csc([N+](=O)[O-])c1 | 24.5 | 1.99 |  | 30.2 | 16.2 | 19 | 23.4 | 27.5 | 15.1 | 54.9 |  | 41.7 | 24 | 30.9 | > 100 | 42.6
CCOC(=O)/C(C#N)=C/c1ccc([N+](=O)[O-])s1 | 2.14 | 12 | 2.09 | 2.63 | 2.95 | 2.09 | 1.74 | 1.62 | 10.7 | 6.92 | 13.5 | 5.75 | 1.66 | 11.5 | 15.5 | 0.28
